# Laboratory results: patent publication US10028971B2, “Compositions and methods for treating psychiatric disorders” (GOSFORTH CENTRE (HOLDINGS) PTY LTD., priority 2008, dated 2018)
# Read-outs that look alike come from different tables or passages of the source.
# What was measured:
# [1] = tested on: patients with substance addiction; experiment: Treatment of addictions, clinical observation; type: in vivo, human; conditions: for clinical outcome (case): person
# Excerpt: Addiction to amphetamines poses a number of unique challenges.
# [2] = tested on: mood stabilisation or epileptic symptoms or events; conditions: adults, cited from earlier work
smiles,measurement,setting,value
"CCCC(CCC)C(=O)O.[Na] [sodium valproate, sodium di-n-propylacetic acid]",clinical outcome (case),"[1]; methamphetamine use, 100 mg/d Valproate with 50 mg/d dexamphetamine",robust improvement in attention and concentration abilities
same,clinical outcome (case),[1]; sodium valproate 50 mg increased to 200 mg with dexamphetamine,reduced dependence on marijuana and ceased alcohol consumption
same,clinical outcome,"[1]; two patients, ADHD and methamphetamine addiction, Valproate 50 to 100 mg/d with 50 mg/d dexamphetamine",responded well
same,dose range in which control of symptoms of mania occurs,"[2]; mania (e.g. bipolar disorder), Epilim product information (Sanofi-Aventis)","1,000 to 2,000 mg/day"
same,dose range in which control of symptoms of mania occurs,"[2]; mania, Epilim product information",20 to 30 mg/kg/day
